PMC10778976, “BAY-3827 and SBI-0206965: Potent AMPK Inhibitors That Paradoxically Increase Thr172 Phosphorylation” (International Journal of Molecular Sciences, 2023)
≈ marks a conversion by molar mass, not a printed value. Like-named read-outs stand apart in the source and are kept apart here.

How the values were obtained:
[1] = parameters: method as in PMID 35802287; details: cited from earlier work
human α2β2γ1 complex [2] = target: T1, human α2β2γ1 complex (Homo sapiens, UniProt P54646); experiment: Cell-free kinase assay of bacterially expressed human α2β2γ1 complex phosphorylated on Thr172 by CaMKK2; format: biochemical; details: ATP 200 µM; read-out: IC50, inhibition of human α2β2γ1 complex
T1 construct: (His)6
Text: (§1) AMPK assays measured the transfer of radioactivity from labelled ATP to a peptide substrate, which was separated from unreacted ATP by binding to P81 paper. This assay was described previously, except that we used [γ-^33P]ATP rather than [γ-^32P]ATP. The peptide substrate was the AMARA peptide in all experiments other than one, which analyzed allosteric activation by AMP (Figure 2A), when, for technical reasons, the SAMS peptide was used instead. With purified preparations of AMPK, it was assayed in solution, but for assays in cell lysates (Figure 3D and Figure 4D), it was first immunoprecipitated using a mixture of anti-α1 and -α2 antibodies and assayed in resuspended immunoprecipitates. After the initial immunoprecipitation of lysate containing 80 µg of protein, the pellets were washed twice with 1 mL of high salt IP buffer (50 mM Tris-HCL, pH 7.4 at 4 °C, 1 M NaCl, 1 mM EDTA, 1 mM EGTA, 50 mM NaF, 5 mM Na pyrophosphate, 1 mM dithiothreitol, 0.1% (v/v) Triton X-100) and twice with 1 mL of low salt IP buffer (as above but only 150 mM NaCl), followed by a final wash in 1 mL of assay buffer (50 mM Na Hepes, pH7.4, 150 mM NaCl, 1 mM dithiothreitol, 0.02% (v/v) Brij-35). After each wash, the pellet was recovered via centrifugation (16,000× g, 3 min) and then resuspended. […]

[3] = test system: phosphorylation of Ser29 on ATG14, an established target for ULK1, in U2OS cells; experiment: ATG14 phosphorylation (ULK1 target) in U2OS cells (Western blot); format: cell-based, human; details: read-out: IC50, inhibition of ATG14 (Ser29) phosphorylation
Method: T-Rex U2OS cells carrying a Flp Recombinase Target (FRT) site were generated as described previously and grown in Dulbecco’s Modified Eagle’s Medium (DMEM) supplemented with 10% (v/v) FBS and 1% (v/v) penicillin/streptomycin.
Cells were lysed rapidly in situ on culture plates using ice-cold lysis medium containing phosphatase inhibitors, as described previously.
SDS-PAGE was performed using precast NuPAGE Tris-acetate 3–8% gradient polyacrylamide gels in Tris-acetate running buffer when analyzing ACC, GBF1, or Raptor, or NuPAGE Bis-Tris 4–12% gradient polyacrylamide gels in the MOPS buffer system (ThermoFisher Scientific, Waltham, MA, USA) for other proteins (unless stated otherwise). Proteins were transferred to nitrocellulose membranes using the iBlot 2 system (ThermoFisher Scientific). Membranes were enhanced if necessary using SuperSignal Western Blot Enhancer (ThermoFisher Scientific), then blocked for 1 h in Li-Cor Odyssey blocking buffer. The membranes were probed with the appropriate primary antibody (0.1–1 mg/mL) overnight at 4 °C. […] Protein concentrations were determined by Coomassie Blue binding with bovine serum albumin as a standard. The cellular levels of AMP and ATP were determined via direct perchloric acid extraction from cells, with LC:MS used to estimate the levels of each nucleotide.

human α1β1γ1 complex = human α1β1γ1 complex (Homo sapiens, UniProt Q13131); details: previous estimate; read-out: IC50, inhibition of α1β1γ1; cited from earlier work
[4] = test system: RSK (RSK1-4, also known as RPS6KA1-4); details: selectivity screen against 331 kinases, 1 µM, 10 µM ATP; cited from earlier work
human α2β2γ1 complex [5] = target: T2, human α2β2γ1 complex (Homo sapiens, UniProt O43741+P54619+P54646); experiment: Cell-free kinase assay of bacterially expressed human α2β2γ1 complex phosphorylated on Thr172 by CaMKK2; format: biochemical; details: ATP 200 µM; read-out: IC50, inhibition of human α2β2γ1 complex
T2 construct: (His)6
Text: as §1

Aqueous solubility = format: physicochemical; details: aqueous medium (not further specified)
[6] = target: T3, “naïve” (unphosphorylated), bacterially expressed human α1β1γ1 complex (Homo sapiens, UniProt Q13131+Q9Y478); experiment: Allosteric activation of naïve (unphosphorylated) α1β1γ1 complex by MK-8722 with and without BAY-3827; format: biochemical; details: BAY-3827 30 nM
T3 construct: (His)6
Text: (§2) AMPK assays measured the transfer of radioactivity from labelled ATP to a peptide substrate, which was separated from unreacted ATP by binding to P81 paper. This assay was described previously, except that we used [γ-^33P]ATP rather than [γ-^32P]ATP. The peptide substrate was the AMARA peptide in all experiments other than one, which analyzed allosteric activation by AMP (Figure 2A), when, for technical reasons, the SAMS peptide was used instead. With purified preparations of AMPK, it was assayed in solution, but for assays in cell lysates (Figure 3D and Figure 4D), it was first immunoprecipitated using a mixture of anti-α1 and -α2 antibodies and assayed in resuspended immunoprecipitates. After the initial immunoprecipitation of lysate containing 80 µg of protein, the pellets were washed twice with 1 mL of high salt IP buffer (50 mM Tris-HCL, pH 7.4 at 4 °C, 1 M NaCl, 1 mM EDTA, 1 mM EGTA, 50 mM NaF, 5 mM Na pyrophosphate, 1 mM dithiothreitol, 0.1% (v/v) Triton X-100) and twice with 1 mL of low salt IP buffer (as above but only 150 mM NaCl), followed by a final wash in 1 mL of assay buffer (50 mM Na Hepes, pH7.4, 150 mM NaCl, 1 mM dithiothreitol, 0.02% (v/v) Brij-35). After each wash, the pellet was recovered via centrifugation (16,000× g, 3 min) and then resuspended. The final resuspended pellets from each biological replicate were divided into two aliquots (40 µg lysate protein) to provide technical replicates and assayed as above.

purified rat liver AMPK = experiment: Allosteric activation of rat liver AMPK by AMP with and without BAY-3827; format: biochemical; details: BAY-3827 30 nM
Text: as §2

[7] = parameters: method as in ref 32 = [32]; 32. Lemos C. Schulze A. Overview for BAY-3827, an Inhibitor of PRKAA1, RPS6KA1 Available online: https://www.sgc-ffm.uni-frankfurt.de/chemProbes#!specificprobeoverview/BAY-3827 (accessed on 14 Novembe); details: mouse liver microsomes; cited from earlier work
[8] = parameters: method as in ref 32 = [32]; 32. Lemos C. Schulze A. Overview for BAY-3827, an Inhibitor of PRKAA1, RPS6KA1 Available online: https://www.sgc-ffm.uni-frankfurt.de/chemProbes#!specificprobeoverview/BAY-3827 (accessed on 14 Novembe); details: rat hepatocytes; cited from earlier work

T3 sequence (Q13131 whole entry): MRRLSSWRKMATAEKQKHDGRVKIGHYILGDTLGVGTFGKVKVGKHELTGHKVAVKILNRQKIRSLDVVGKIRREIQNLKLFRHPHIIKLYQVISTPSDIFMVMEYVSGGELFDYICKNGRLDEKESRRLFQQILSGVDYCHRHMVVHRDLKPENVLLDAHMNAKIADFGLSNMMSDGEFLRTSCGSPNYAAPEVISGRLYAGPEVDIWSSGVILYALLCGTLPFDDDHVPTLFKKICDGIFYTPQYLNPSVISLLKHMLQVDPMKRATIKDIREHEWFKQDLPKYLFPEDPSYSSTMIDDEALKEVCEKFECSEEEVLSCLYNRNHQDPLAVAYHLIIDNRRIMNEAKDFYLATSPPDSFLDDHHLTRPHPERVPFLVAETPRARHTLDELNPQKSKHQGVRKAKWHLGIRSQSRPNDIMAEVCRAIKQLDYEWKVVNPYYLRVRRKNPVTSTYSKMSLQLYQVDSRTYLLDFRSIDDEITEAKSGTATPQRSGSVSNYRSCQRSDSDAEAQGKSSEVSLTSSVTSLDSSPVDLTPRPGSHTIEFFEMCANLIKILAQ
T3 sequence (Q9Y478 2-270): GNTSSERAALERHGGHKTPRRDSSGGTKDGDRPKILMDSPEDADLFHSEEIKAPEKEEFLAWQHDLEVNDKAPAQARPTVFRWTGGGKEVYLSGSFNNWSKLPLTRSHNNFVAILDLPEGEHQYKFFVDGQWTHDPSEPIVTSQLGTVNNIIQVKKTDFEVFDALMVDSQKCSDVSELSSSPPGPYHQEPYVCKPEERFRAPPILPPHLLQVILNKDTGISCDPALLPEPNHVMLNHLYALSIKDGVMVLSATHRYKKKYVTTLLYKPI
T3 sequence (P54619 whole entry partner): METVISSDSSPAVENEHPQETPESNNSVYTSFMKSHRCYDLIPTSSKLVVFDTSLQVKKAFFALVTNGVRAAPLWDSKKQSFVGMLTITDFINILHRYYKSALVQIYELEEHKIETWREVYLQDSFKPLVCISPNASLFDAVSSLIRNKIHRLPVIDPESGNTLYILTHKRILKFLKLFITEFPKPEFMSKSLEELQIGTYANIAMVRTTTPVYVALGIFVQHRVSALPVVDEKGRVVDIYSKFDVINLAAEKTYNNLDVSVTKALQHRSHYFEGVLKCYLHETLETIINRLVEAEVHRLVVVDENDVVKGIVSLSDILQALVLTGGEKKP
Sequence of human α1β1γ1 complex (Q13131 whole entry): as the sequence (Q13131 whole entry) above
Sequence of human α1β1γ1 complex (P54619 whole entry, further chain): as the sequence (P54619 whole entry partner) above
Sequence of human α1β1γ1 complex (Q9Y478 2-270, further chain): as the sequence (Q9Y478 2-270) above
T2 sequence (P54646 whole entry): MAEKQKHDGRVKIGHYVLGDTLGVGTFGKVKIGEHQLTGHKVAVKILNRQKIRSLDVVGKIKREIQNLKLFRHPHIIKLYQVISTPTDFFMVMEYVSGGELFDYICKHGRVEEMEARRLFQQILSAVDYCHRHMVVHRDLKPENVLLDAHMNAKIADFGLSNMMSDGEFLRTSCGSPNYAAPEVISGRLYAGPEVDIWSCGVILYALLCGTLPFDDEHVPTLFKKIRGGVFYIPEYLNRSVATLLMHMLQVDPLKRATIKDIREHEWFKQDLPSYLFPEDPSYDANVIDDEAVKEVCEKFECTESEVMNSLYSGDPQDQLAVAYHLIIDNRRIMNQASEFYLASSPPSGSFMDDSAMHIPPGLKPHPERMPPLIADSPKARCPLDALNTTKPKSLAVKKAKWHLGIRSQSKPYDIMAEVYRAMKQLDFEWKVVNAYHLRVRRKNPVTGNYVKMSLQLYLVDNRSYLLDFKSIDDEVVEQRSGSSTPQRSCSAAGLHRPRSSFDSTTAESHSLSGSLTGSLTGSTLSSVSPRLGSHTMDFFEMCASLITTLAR
T2 sequence (O43741 whole entry partner): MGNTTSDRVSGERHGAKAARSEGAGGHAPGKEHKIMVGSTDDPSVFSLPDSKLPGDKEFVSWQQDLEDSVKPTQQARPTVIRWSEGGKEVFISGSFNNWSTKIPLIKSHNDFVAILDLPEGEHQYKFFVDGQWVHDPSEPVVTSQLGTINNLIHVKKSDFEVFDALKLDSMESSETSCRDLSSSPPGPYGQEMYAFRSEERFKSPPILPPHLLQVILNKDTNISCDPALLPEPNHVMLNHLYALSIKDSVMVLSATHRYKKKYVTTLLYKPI
T2 sequence (P54619 whole entry partner): as the sequence (P54619 whole entry partner) above
T1 sequence (P54646 whole entry): as the sequence (P54646 whole entry) above
T1 sequence (O43741 whole entry partner): as the sequence (O43741 whole entry partner) above
T1 sequence (P54619 whole entry partner): as the sequence (P54619 whole entry partner) above

In the case of `CNC(=O)c1ccccc1Oc1nc(Nc2cc(OC)c(OC)c(OC)c2)ncc1Br` [SBI-0206965], the elimination half-life [1] is given as “short”, the relative oral availability [1] is given as “low” and the IC50 (human α2β2γ1 complex [2]) is given as 206 nM. The IC50 [3] was 67000 nM and the IC50 (human α1β1γ1 complex) was 300 nM.

In the case of `CCc1ccccc1C(=O)Nc1n[nH]c2c(C)c(F)c(C3C(C#N)=C(C)N(C)C(C)=C3C#N)cc12` [BAY-3827], the “inhibition of all four isoforms of RSK” value [4] is given as “potently inhibit”, the IC50 (human α2β2γ1 complex [5]) is given as 70 nM and the solubility (Aqueous solubility) is given as 0.3 µg/mL (≈ 0.64 µM). For the same compound, the “fold increase of EC50 for MK-8722” value [6] was 7 fold, the “basal activity (without MK-8722)” value ([6]; control without inhibitor 11) was 8.7 nmol/min/mg and the “fold increase of EC50 for AMP” value (purified rat liver AMPK) was 5 fold. The “basal activity (without AMP)” value (purified rat liver AMPK; control without inhibitor 135) was 46 nmol/min/mg, the “in vitro clearance (CL)” value [7] was 83 mL/min/kg and the “oral bio-availability (Fmax)” value [7] was 7%. For the same compound, the “in vitro clearance (CL)” value [8] was 55 mL/min/kg and the “oral bio-availability (Fmax)” value [8] was 21%.
